Laboratory results as given in PubChem BioAssay AID256 (DTP/NCI, 2004).
“And” between values parts separate entries of the source, which are not always exact repeats. Equal values may be shown once. Inconclusive results and toxic doses are left out. How the source made its calls: active means survival T/C of 150% or more; inactive means T/C below 125% in these data.

System: CD2F1 mice, L1210 leukemia ip, survival T/C
Assay: NCI In Vivo Anticancer Drug Screen. Data for tumor model L1210 Leukemia (intraperitoneal) in CD2F1 (CDF1) mice
Conditions: higher = longer survival
Summary of the method: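 Transplantable tumor in mice; compound-treated vs vehicle-treated groups. Read-out = treated/control ratio of the measured endpoint.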

[1] = endpoint: mean survival time, dose: 100.0 mg/kg/injection, schedule: Q04DX003 (ip), vehicle: saline
[2] = endpoint: mean survival time, dose: 200.0 mg/kg/injection, schedule: Q04DX003 (ip), vehicle: saline
[3] = endpoint: mean survival time, dose: 100.0 mg/kg/injection, schedule: Q01DX001 (ip), vehicle: saline
[4] = endpoint: mean survival time, dose: 75.0 mg/kg/injection, schedule: Q01DX001 (ip), vehicle: saline
[5] = endpoint: mean survival time, dose: 100.0 mg/kg/injection, schedule: Q04DX003 (ip), vehicle: saline with Tween-80
[6] = endpoint: mean survival time, dose: 200.0 mg/kg/injection, schedule: Q04DX003 (ip), vehicle: saline with Tween-80
[7] = endpoint: mean survival time, dose: 400.0 mg/kg/injection, schedule: Q04DX003 (ip), vehicle: saline with Tween-80
[8] = endpoint: mean survival time, dose: 200.0 mg/kg/injection, schedule: Q01DX009 (ip), vehicle: saline with Tween-80

Measured: T/C

Nc1cc(=O)[nH]c(=S)[nH]1.[Pd]
inactive: endpoint: mean survival time, dose: 3.13 mg/kg/injection, schedule: Q04DX003 (ip), vehicle: distilled water + Tween-80 100 % of control | endpoint: mean survival time, dose: 6.25 mg/kg/injection, schedule: Q04DX003 (ip), vehicle: distilled water + Tween-80 100 % of control | endpoint: mean survival time, dose: 12.5 mg/kg/injection, schedule: Q04DX003 (ip), vehicle: distilled water + Tween-80 103 % of control | endpoint: mean survival time, dose: 25.0 mg/kg/injection, schedule: Q04DX003 (ip), vehicle: distilled water + Tween-80 97 % of control | endpoint: mean survival time, dose: 50.0 mg/kg/injection, schedule: Q04DX003 (ip), vehicle: distilled water + Tween-80 97 % of control | endpoint: mean survival time, dose: 100.0 mg/kg/injection, schedule: Q04DX003 (ip), vehicle: distilled water + Tween-80 96 % of control | endpoint: mean survival time, dose: 200.0 mg/kg/injection, schedule: Q04DX003 (ip), vehicle: distilled water + Tween-80 91 % of control

C=C(C)C(=NC(C)(C)C)Nc1ccccc1
inactive: endpoint: median survival time, dose: 6.25 mg/kg/injection, schedule: Q01DX009 (ip), vehicle: saline with Tween-80 105 % of control | endpoint: median survival time, dose: 12.5 mg/kg/injection, schedule: Q01DX009 (ip), vehicle: saline with Tween-80 110 % of control | endpoint: median survival time, dose: 25.0 mg/kg/injection, schedule: Q01DX009 (ip), vehicle: saline with Tween-80 108 % of control | endpoint: median survival time, dose: 50.0 mg/kg/injection, schedule: Q01DX009 (ip), vehicle: saline with Tween-80 108 % of control | endpoint: median survival time, dose: 100.0 mg/kg/injection, schedule: Q01DX009 (ip), vehicle: saline with Tween-80 112 % of control | endpoint: median survival time, dose: 200.0 mg/kg/injection, schedule: Q01DX009 (ip), vehicle: saline with Tween-80 121 % of control

COCCC1(CN2c3ccccc3Sc3ccccc32)CCN(C)C1 (centres undefined)
inactive: [1] 94 % of control | [2] 96 % of control

CCCN(CCC)CCCOC(=O)c1ccc([N+](=O)[O-])cc1
inactive: [1] 97 % of control | [2] 92 % of control | endpoint: mean survival time, dose: 400.0 mg/kg/injection, schedule: Q04DX003 (ip), vehicle: saline 94 % of control

CC(CCCC#N)[N+](=O)[O-] (centres undefined)
inactive: endpoint: mean survival time, dose: 5.0 mg/kg/injection, schedule: Q01DX001 (ip), vehicle: saline 102 % of control | endpoint: mean survival time, dose: 10.0 mg/kg/injection, schedule: Q01DX001 (ip), vehicle: saline 96 % of control | endpoint: mean survival time, dose: 20.0 mg/kg/injection, schedule: Q01DX001 (ip), vehicle: saline 102 % of control | endpoint: mean survival time, dose: 40.0 mg/kg/injection, schedule: Q01DX001 (ip), vehicle: saline 102 % of control | [3] 98 % of control

O=C1C2CC=CC2C1(Cl)Cl (centres undefined)
inactive: [4] 91 % of control | endpoint: mean survival time, dose: 150.0 mg/kg/injection, schedule: Q01DX001 (ip), vehicle: saline 94 % of control | endpoint: mean survival time, dose: 300.0 mg/kg/injection, schedule: Q01DX001 (ip), vehicle: saline 91 % of control

Cc1cc(C)cc(OCCOCCOc2cc(C)cc(C)c2)c1
inactive: [5] 94 % of control | [6] 97 % of control | [7] 100 % of control

Nc1cccc(CCCCc2cccc(S(=O)(=O)F)c2)c1
inactive: endpoint: mean survival time, dose: 50.0 mg/kg/injection, schedule: Q01DX009 (ip), vehicle: saline with Tween-80 97 % of control | endpoint: mean survival time, dose: 100.0 mg/kg/injection, schedule: Q01DX009 (ip), vehicle: saline with Tween-80 95 % of control | [5] 100 % of control | [8] 97 % of control | [6] 95 % of control

C1CCC(C2CCCC[N-]2)[N-]C1.CC(C)CC([NH-])C(=O)O.[Cl][Pt] (centres undefined)
inactive: endpoint: median survival time, dose: 10.0 mg/kg/injection, schedule: Q04DX003 (ip), vehicle: saline 96 % of control | endpoint: median survival time, dose: 20.0 mg/kg/injection, schedule: Q04DX003 (ip), vehicle: saline 100 % of control | endpoint: median survival time, dose: 40.0 mg/kg/injection, schedule: Q04DX003 (ip), vehicle: saline 97 % of control | endpoint: median survival time, dose: 80.0 mg/kg/injection, schedule: Q04DX003 (ip), vehicle: saline 101 % of control and 104 % of control | endpoint: median survival time, dose: 160.0 mg/kg/injection, schedule: Q04DX003 (ip), vehicle: saline 104 % of control | endpoint: median survival time, dose: 320.0 mg/kg/injection, schedule: Q04DX003 (ip), vehicle: saline 93 % of control

Nc1ncnc2c1c1c(=O)[nH]nnc1n2C1OC(CO)C(O)C1O (centres undefined)
inactive: endpoint: mean survival time, dose: 3.13 mg/kg/injection, schedule: Q01DX005 (ip), vehicle: water 101 % of control | endpoint: mean survival time, dose: 6.25 mg/kg/injection, schedule: Q01DX005 (ip), vehicle: water 103 % of control | endpoint: mean survival time, dose: 12.5 mg/kg/injection, schedule: Q01DX005 (ip), vehicle: water 92 % of control | endpoint: mean survival time, dose: 12.5 mg/kg/injection, schedule: Q01DX009 (ip), vehicle: distilled water + Tween-80 113 % of control | endpoint: mean survival time, dose: 25.0 mg/kg/injection, schedule: Q01DX005 (ip), vehicle: water 107 % of control | endpoint: mean survival time, dose: 25.0 mg/kg/injection, schedule: Q01DX009 (ip), vehicle: distilled water + Tween-80 122 % of control | endpoint: mean survival time, dose: 50.0 mg/kg/injection, schedule: Q01DX005 (ip), vehicle: water 105 % of control | endpoint: mean survival time, dose: 50.0 mg/kg/injection, schedule: Q01DX009 (ip), vehicle: distilled water + Tween-80 122 % of control | endpoint: mean survival time, dose: 100.0 mg/kg/injection, schedule: Q01DX005 (ip), vehicle: water 107 % of control

O=C(OCc1ccccc1)c1ccccc1
inactive: endpoint: mean survival time, dose: 100.0 mg/kg/injection, schedule: Q04DX002 (ip), vehicle: Klucel (hydroxypropylcellulose) (HPC) 90 % of control | endpoint: mean survival time, dose: 200.0 mg/kg/injection, schedule: Q04DX002 (ip), vehicle: Klucel (hydroxypropylcellulose) (HPC) 100 % of control | endpoint: mean survival time, dose: 400.0 mg/kg/injection, schedule: Q04DX002 (ip), vehicle: Klucel (hydroxypropylcellulose) (HPC) 90 % of control

CO/N=C(/c1ccccc1)c1cccc[n+]1C
inactive: endpoint: mean survival time, dose: 9.4 mg/kg/injection, schedule: Q01DX009 (ip), vehicle: saline 107 % of control | endpoint: mean survival time, dose: 18.8 mg/kg/injection, schedule: Q01DX009 (ip), vehicle: saline 97 % of control | endpoint: mean survival time, dose: 37.5 mg/kg/injection, schedule: Q01DX009 (ip), vehicle: saline 98 % of control | [4] 97 % of control

O=C(O)CCC(CCC(=O)O)(C(=O)O)C(=O)O
inactive: endpoint: median survival time, dose: 75.0 mg/kg/injection, schedule: Q01DX009 (ip), vehicle: saline 98 % of control | endpoint: median survival time, dose: 150.0 mg/kg/injection, schedule: Q01DX009 (ip), vehicle: saline 96 % of control | endpoint: median survival time, dose: 300.0 mg/kg/injection, schedule: Q01DX009 (ip), vehicle: saline 96 % of control

COC1OC(C)CC(C)(C)O1 (centres undefined)
inactive: endpoint: mean survival time, dose: 100.0 mg/kg/injection, schedule: Q04DX002 (ip), vehicle: saline 89 % of control | endpoint: mean survival time, dose: 200.0 mg/kg/injection, schedule: Q04DX002 (ip), vehicle: saline 96 % of control | endpoint: mean survival time, dose: 400.0 mg/kg/injection, schedule: Q04DX002 (ip), vehicle: saline 100 % of control

O=S(=O)(CCCl)c1ccc(Cl)cc1
inactive: endpoint: mean survival time, dose: 100.0 mg/kg/injection, schedule: Q04DX002 (ip), vehicle: saline with Tween-80 96 % of control | endpoint: mean survival time, dose: 200.0 mg/kg/injection, schedule: Q04DX002 (ip), vehicle: saline with Tween-80 101 % of control

NC1(C(=O)O)CCCC1.[Zn+2]
inactive: [3] 100 % of control | endpoint: mean survival time, dose: 400.0 mg/kg/injection, schedule: Q01DX001 (ip), vehicle: saline 120 % of control

CCOC(=O)c1cc(=O)cc(C(=O)OCC)o1
inactive: endpoint: mean survival time, dose: 100.0 mg/kg/injection, schedule: Q01DX001 (ip), vehicle: saline with Tween-80 100 % of control | endpoint: mean survival time, dose: 200.0 mg/kg/injection, schedule: Q01DX001 (ip), vehicle: saline with Tween-80 100 % of control | endpoint: mean survival time, dose: 400.0 mg/kg/injection, schedule: Q01DX001 (ip), vehicle: saline with Tween-80 100 % of control

C(=N/N=C/c1ccc2c(c1)OCO2)/c1ccco1
inactive: [5] 93 % of control | [8] 90 % of control | [6] 96 % of control | endpoint: mean survival time, dose: 400.0 mg/kg/injection, schedule: Q01DX009 (ip), vehicle: saline with Tween-80 86 % of control | [7] 95 % of control
